Here are results for two molecules from US20200267989A1, “PARASITE TREATMENT COMPOUND” (University of Maine System Board of Trustees, priority 2017, published 2020).

Values joined by “and” are separate entries in the source; they are usually repeats but may differ in a detail not shown here. Equal entries are not always repeated. Bounds are passed on as bounds.

Data set [1] has as its system sea lice. The experiment in a line: Pilot laboratory trial: KCl pre-treatment plus mechanical devices for removal of sea lice from Atlantic salmon. The format is in vivo. Here is the method:
A pilot laboratory trial was run using various forms of mechanical devices for removal of sea lice from Atlantic salmon (ATS). The effectiveness of the mechanical devices at removing/detaching lice was measured with and without KCl pretreatment, and the results compared.
The experiment consisted of testing 3 mechanical devices on lice infested Atlantic salmon (ATS) in seawater and then on lice infested Atlantic salmon that had been pre-treated in seawater with KCL at 4 part per thousand (PPT) or 2 PPT for 5 or 15 minutes. The mechanical treatment referred to as Treatment A in Table 1 was a water spray apparatus including multiple jets in a roughly circular arrangement, and treatments B and C in Table 1 were alternative mechanical treatments. Each treatment group was run separately with two fish were staggered by 15 minutes to facilitate counting lice, except for Treatment C as both fish were placed together. The treatment groups were as follows: • 1) Treatment A with seawater (2 fish) • 2) Treatment A with sea water plus KCL 4 PPT, 15 minutes (2 fish) • 3) Treatment B with seawater (2 fish) • 4) Treatment B with sea water plus KCL 4 PPT, 15 minutes (2 fish) • 5) Treatment A with seawater plus 2PPT, 15 minutes (1 fish) • 6) Treatment A with sea water plus KCL 4 PPT, 5 minutes (1 fish) • 7) Treatment C with seawater (2 fish) • 8) Treatment C sea water plus KCL 2 PPT (2 fish)
Each treatment group was performed essentially as follows:
Pre-Treatment before Treatment A, B, or C • 1) Take 1 fish and transfer it to Tank 1 (70 liter tank); • 2) Take 1 fish and transfer it to Tank 2, staggered (70 liter tank); • 3) Both tanks will be filled with seawater for Round 1 of a treatment group and seawater and KC1 4PPT X for Round 2 for a treatment; • 4) Fish swim around freely in treatment Tank 1 for 30 minutes; • 5) Fish swim around freely in treatment Tank 2 for 30 minutes;
Evaluation of Pretreatment: • 1) Remove Fish from Tank 1; • 2) Place 1 Fish in Sedation Tank; • 3) Count detached lice in Tank 1; • 4) Remove 1 Fish from Sedation Tank; • 5) Count numbers of Lice on each fish (making sure to differentiate between the two tanks); • 6) Repeat for staggered Tank 2.
Perform Mechanical Treatment: • 1) Pass fish through mechanical treatments (A, B or C) • 2) Count lice on fish

For data set [2], the system named is Atlantic salmon. The experiment in a line: KCl bath treatment of Atlantic salmon: adverse effects on the fish. The format is in vivo. As to the method: (§1) A 0.48% (4.8 g/L-4.8 ppt) pharmaceutical grade KCl compound was tested on 30 Atlantic salmon that were infected with sea lice. The fish and the compound were added to a tank filled with seawater. After 30 minutes 15 fish were removed and placed in a recovery bath of seawater, and at 60 minutes the remaining 15 fish were removed.
(§2) A 0.43% % (4.3 g/L-4.3 ppt) agricultural grade KCl compound was tested on Atlantic salmon that were infected with sea lice. After 10 minutes the fish began showing agitation that increased until the 30 minute mark. Fish began losing equilibrium and began to roll over and stop respiring by 20 minutes.
(§3) A water holding tank was filled with fresh well water at 10° C.+−2° C. A 0.5% % (5.0 g/L-5.0 ppt) agricultural grade KCl solution was added to the water. A number of farm-raised Atlantic salmon that were infected with sea lice were added to the tank.
(§4) A water holding tank was filled with fresh well water at 10° C.+−2° C. A 0.2% % (2.0 g/L-2.0 ppt) agricultural grade KCl solution was added to the water. A number of farm-raised Atlantic salmon that were infected with sea lice were added to the tank.

Data set [3] has as its system sea lice. The experiment in a line: KCl bath treatment of sea-lice-infected Atlantic salmon: sea lice detachment. The format is in vivo. As to the method:
as §1, §2, §3, §4

For data set [4] the following is noted: previously known pesticide treatment; cited from earlier work.
The mark [5] stands for this setting: Mechanical Treatment A, KCl 2 PPT in seawater, treatment time 15 min.
Setting [6] is: Mechanical Treatment A, KCl 4 PPT in seawater, treatment time 5 min.
[7] abbreviates: Mechanical Treatment A, KCl 4 PPT in seawater, treatment time 15 min.
[8] abbreviates: Mechanical Treatment B, KCl 4 PPT in seawater, treatment time 15 min.
Where [9] appears, read: Example 1: 0.48% (4.8 ppt) pharmaceutical grade KCl, seawater tank, 30 and 60 minutes.
The mark [10] stands for this setting: Example 3: 0.5% (5.0 ppt) agricultural grade KCl, fresh well water at 10° C.

`[Cl-].[K+]` [KCl, potassium chloride]: the “effect of KCl on effectiveness of mechanical treatments A and B at removing/detaching lice” value in data set [1] (KCl pretreatment in seawater before mechanical treatment) is listed as “increases the effectiveness”. Moreover, the “# removed - mechanical + KCl” value was 90 in data set [1] (setting [5]); 117 in data set [1] (setting [6]); 99 and 115 in data set [1] (setting [7]); 88 and 85 in data set [1] (setting [8]). Also, the “# removed - mechanical treatment only” value in data set [1] (setting [5]) was 39; in data set [1] (setting [6]) it was 65; in data set [1] (setting [7]) it was 19 and 16; in data set [1] (setting [8]) it was 9 and 11. Moreover, the “% removed - mechanical + KCl” value in data set [1] (setting [5]) was 78.3%; in data set [1] (setting [6]) it was 80.7%; in data set [1] (setting [7]) it was 91.7% and 99.1%; in data set [1] (setting [8]), 91.7% and 93.4%. Also, the “% removed - mechanical treatment only” value in data set [1] (setting [5]) is 60.9%; in data set [1] (setting [6]) it was 69.9%; in data set [1] (setting [7]), 67.9% and 94.1%; in data set [1] (setting [8]), 52.9% and 64.7%. Also, the “Sealice counts: Detached in pre-treatment tank” value in data set [1] (setting [5]) is 51; in data set [1] (setting [6]), 52; in data set [1] (setting [7]) it was 80 and 99; in data set [1] (setting [8]) it was 79 and 74. Moreover, the “Sealice counts: On fish - finish” value was 25 in data set [1] (setting [5]); 28 in data set [1] (setting [6]); 8 and 6 in data set [1] (setting [8]); 35 and 31 in data set [1] (Mechanical Treatment C, KCl 2 PPT in seawater, treatment time 5 min, lice not counted prior to treatment). Further, the “Sealice counts: On fish - start of mechanical treatment” value in data set [1] (setting [5]) was 64; in data set [1] (setting [6]), 93; in data set [1] (setting [7]), 28 and 17; in data set [1] (setting [8]), 17. The “removing/detaching lice by KCl pretreatment on its own” value in data set [1] (pretreatment at 4ppt and 2ppt in seawater) is “effective in removing/detaching lice on its own”. Moreover, the “effectiveness of KCl at 4ppt compared with 2ppt” value in data set [1] (seawater pretreatment) is recorded as “more effective”. In addition, the “effectiveness of KCl at 4ppt for 15 minutes compared with 5 minutes” value in data set [1] (seawater pretreatment, 4ppt) is recorded as “more effective”. In data set [2] (setting [9]), the “adverse effects on the salmon” value is “no noticeable adverse effects”. In addition, the “time by which fish began losing equilibrium, rolled over and stopped respiring” value in data set [2] (Example 2: 0.43% (4.3 ppt) agricultural grade KCl) is at most 20 min. The “time after which fish began showing agitation” value in data set [2] (Example 2: 0.43% (4.3 ppt) agricultural grade KCl, agitation increased until the 30 minute mark) is 10 min. For the same molecule, the “time within which fish showed extreme agitation, began to lose equilibrium and respiration stopped” value in data set [2] (setting [10]) was at most 10 min. The “agitation or adverse effect on the fish” value in data set [2] (Example 4: 0.2% (2.0 ppt) agricultural grade KCl, fresh well water at 10° C., after 60 minutes) is “no agitation or adverse effect”. In addition, the sea lice detachment entry is “noticeable sea lice detachment” in data set [3] (setting [9]); “detached more lice” in data set [3] (Example 2: 0.43% (4.3 ppt) agricultural grade KCl, by agitation and thrashing of the dying fish); “marked sea lice detachment” in data set [3] (Example 4: 0.2% (2.0 ppt) agricultural grade KCl, fresh well water at 10° C., after 30 minutes). In data set [3] (setting [10]), the sea lice removal entry is reported as “marked sea lice removal”. Besides, the “effectiveness on sea lice in freshwater compared with seawater” value in data set [3] (freshwater vs seawater) is given as “more effective”.

With emamectin benzoate, the “time the pesticide can remain in the fish” value in data set [4] is given as “more than two months”.
